# Assay results as given in US6713266B1 (Isodiagnostika Inc., priority 1998, dated 2004).
# Values joined by “and” are separate entries in the source; they are usually repeats but may differ in a detail not shown here. Equal entries are not always repeated.
# Legend:
# MoAb CSA-2G9 = test: Inhibition ELISA to the CSA-DVS-HSA conjugate, MoAb; format: binding, mouse; details: for Percent Inhibition of TCS: CSA-2G9 TCS, Table 16, CSA-DVS-HSA conjugate
# Experimental: (§1) Inhibition ELISA Protocol:
# (§2) 1. Use Falcon Pro-bind immunoplates.
# (§3) 2. Dilute coating antigen to 1 μg/mL in carbonate-bicarbonate buffer. Add 100 μL per well and incubate overnight at 4° C.
# (§4) 3. On the same day prepare inhibiting antigen tubes. Aliquot antibodies into glass test tubes. Prepare appropriate antigen concentration in ethanol and add to aliquoted antibody at 10 μL ethanol solution/250 μL antibody. Vortex tubes and incubate overnight at 4° C.
# (§5) 4. Shake out wells and wash 3× with 200 μL PBS/0.05% TWEEN™ (polyoxyethylene-sorbitol) (v/v) per well.
# (§6) 5. Add 200 μL blocking buffer per well (PBS/2% BSA (w/v)). Incubate 60 min at room temperature.
# (§7) 7. Transfer contents of inhibition tubes to antigen-coated plate, 100 μL per well. Incubate 60 min at 37° C.
# (§8) 9. Dilute alkaline phosphatase conjugated anti-mouse IgG (Pierce cat#31322) in PBS/0.1% TWEEN™ (polyoxyethylene-sorbitol) (v/v) to 1:5000 concentration. Add 100 μL per well and incubate at 37° C. for 60 min.
# (§9) 11. […] Add 100 μL per well and incubate in the dark at room temperature. Absorbance can be read at 405 nm at approximately 15-min intervals.
# MoAb CSA-1H6 = test: as above; format: binding, mouse; details: for Percent Inhibition of TCS: CSA-1H6 TCS, Table 16, CSA-DVS-HSA conjugate
# Experimental: as §1, §2, §3, §4, §5, §6, §7, §8, §9
# MoAb AM1-7F5 = test: as above; format: binding, mouse; details: for Percent Inhibition of TCS: AM1-7F51, Table 18, CSA-DVS-HSA coated plate
# Experimental: as §1, §2, §3, §4, §5, §6, §7
# (§10) 9. […] Add 100 μL per well and incubate at 37° C. for 60 min.
# as §9
# MoAb AM1-2E10 = test: as above; format: binding, mouse; details: for Percent Inhibition of TCS: AM1-2E10 TCS, Table 18, CSA-DVS-HSA coated plate
# Experimental: as §1, §2, §3, §4, §5, §6, §7, §10, §9
# [1] = tested on: Mouse polyclonal sera (AM9-9-DVS-KLH immunogen); test: Inhibition ELISA, AM19-9-DVS-HSA coated plate, mouse polyclonal sera; format: binding
# Experimental: as §1, §2, §3, §4, §5, §6, §7, §10, §9
# [2] = tested on: Mouse polyclonal sera (AM19-9-DVS-KLH immunogen); test: Inhibition ELISA, AM19-9-DVS-HSA coated plates, mouse polyclonal sera; format: binding
# Experimental: as §1, §2, §3, §4, §5, §6, §7, §10, §9
# [3] = tested on: Mouse polyclonal sera (AM19-1-DVS (2) - KLH immunogen); test: Inhibition ELISA, AM19-1-DVS (2) HSA coated plate, mouse polyclonal sera; format: binding
# Experimental: as §1, §2, §3, §4, §5, §6, §7, §10, §9
# [4] = tested on: Rabbit polyclonal sera (AM19-1-DVS-KLH (1) immunogen); test: Inhibition ELISA, AM19-1-DVS (1) HSA coated plate, rabbit polyclonal sera; format: binding
# Experimental: as §1, §2, §3, §4, §5, §6, §7, §10, §9
# The AM19-1-DVS (1) conjugate was also used to immunize rabbits.
# [5] = tested on: Mouse polyclonal sera (CSA-DVS-KLH immunogen); test: Inhibition ELISA, CSA-DVS-HSA coated plate, mouse polyclonal sera; format: binding
# Experimental: as §1, §2, §3, §4, §5, §6, §7, §10, §9
# [6] = tested on: Mouse polyclonal sera (AM19-1-DVS (1) - KLH immunogen); test: Inhibition ELISA, AM19-1-DVS (1) HSA coated plate, mouse polyclonal sera; format: binding
# Experimental: as §1, §2, §3, §4, §5, §6, §7, §10, §9
# MoAb AM19-1-7E12-1 = test: Inhibition ELISA with AM19-1-DVS (1) coated ELISA plates, MoAb; format: binding, mouse; details: AM19-1-7E12-1 TCS
# Experimental: as §1, §2, §3, §4, §5, §6, §7, §10, §9
# MoAb AM19-1-7E12-2 = test: as above; format: binding, mouse; details: AM19-1-7F12-2
# Experimental: as §1, §2, §3, §4, §5, §6, §7, §10, §9
# [7] = tested on: Mouse polyclonal sera (AM1-DVS-KLH immunogen); test: Inhibition ELISA to the CSA-DVS-HSA conjugate, mouse polyclonal sera; format: binding
# Experimental: as §1, §2, §3, §4, §5, §6, §7, §10, §9
# [8] = tested on: Mouse polyclonal sera (AM19-1-DVS (1) - KLH immunogen); test: Antigen panel (direct) ELISA, mouse polyclonal sera; format: binding; details: Mice 1 and 2
# Experimental: (§11) 1. Use Falcon Pro-bind immunoplate.
# (§12) 2. Dilute coating antigen (Ag) to 1.0 μg/mL in carbonate-bicarbonate buffer. Use glass tubes.
# (§13) 3. Add 100 μL to each well of plate. Store overnight at 4° C.
# as §5
# (§14) 5. Add blocking buffer, 200 μL per well (PBS/2% BSA (w/v)). Incubate for 60 min at 37° C.
# (§15) 7. Add 100 μL per well of test antibody appropriately diluted in PBS/0.1% Tween (v/v). Incubate 60 min at 37° C.
# (§16) 9. Dilute alkaline phosphatase conjugated anti-mouse IgG (Pierce cat #31322) in PBS/0.1% TWEEN™ (polyoxyethylene-sorbitol) (v/v) to 1:2000 concentration. Add 100 μL per well and incubate at 37° C. for 60 min.
# (§17) 10. Wash 3× as in step 4.
# as §9
# (§18) These serum samples were assayed by direct ELISA for antibody titre to specific haptens.
# [9] = tested on: Mouse polyclonal sera (AM19-1-DVS (2) - KLH immunogen); test: as above; format: binding; details: Mice 3 and 4
# Experimental: as §11, §12, §13, §5, §14, §15, §16, §17, §9, §18
# [10] = tested on: Mouse polyclonal sera (AM9-9-DVS-KLH immunogen); test: as above; format: binding
# Experimental: as §11, §12, §13, §5, §14, §15, §16, §17, §9
# [11] = tested on: Mouse polyclonal sera (AM1-DVS-KLH immunogens); test: as above; format: binding
# Experimental: as §11, §12, §13, §5, §14, §15, §16, §17, §9
# [12] = tested on: Mouse polyclonal sera (CSA-DVS-KLH immunogen); test: as above; format: binding; details: KLH coated ELISA plates
# Experimental: as §11, §12, §13, §5, §14, §15, §16, §17, §9
# [13] = tested on: Mouse polyclonal sera (AM19-9-DVS-KLH immunogens); test: as above; format: binding
# Experimental: as §11, §12, §13, §5, §14, §15, §16, §17, §9
# [14] = tested on: Mouse monoclonal antibody AM19-1-7E12-1; test: Antigen panel (direct) ELISA, MoAb tissue culture supernatant; format: binding
# Experimental: as §11, §12, §13, §5, §14, §15, §16, §17, §9
# (§19) Spleen cells from mice immunized with the AM19-1-DVS (1) conjugate have been used to prepare MoAb secreting hybridoma cells.
# [15] = tested on: Mouse monoclonal antibody AM19-1-7E12-2; test: as above; format: binding
# Experimental: as §11, §12, §13, §5, §14, §15, §16, §17, §9, §19
# [16] = tested on: Mouse monoclonal antibody CSA-1H6; test: as above; format: binding
# Experimental: as §11, §12, §13, §5, §14, §15, §16, §17, §9
# [17] = tested on: Mouse monoclonal antibody CSA-2G9; test: as above; format: binding
# Experimental: as §11, §12, §13, §5, §14, §15, §16, §17, §9
# [18] = tested on: Mouse monoclonal antibody AM1-2E10; test: as above; format: binding
# Experimental: as §11, §12, §13, §5, §14, §15, §16, §17, §9
# [19] = tested on: Mouse monoclonal antibody AM1-7F5; test: as above; format: binding
# Experimental: as §11, §12, §13, §5, §14, §15, §16, §17, §9
compound,measurement,setting,value
"C/C=C/C[C@@H](C)[C@@H](O)[C@H]1C(=O)N[C@@H](CCC)C(=O)N(C)CC(=O)N(C)[C@@H](CC(C)C)C(=O)N[C@@H](C(C)C)C(=O)N(C)[C@@H](CC(C)C)C(=O)N[C@@H](C)C(=O)N[C@H](C)C(=O)N(C)[C@@H](CC(C)C)C(=O)N(C)[C@@H](CC(C)C)C(=O)N(C)[C@@H](C(C)C)C(=O)N1C [CSG, cyclosporine G]",Percent Inhibition,"MoAb CSA-2G9; CSA-2G9, Table 24, CSA, CSG and CSA derivative inhibitors",89.8%
same,Percent Inhibition,"MoAb CSA-1H6; CSA-1H6, Table 24, CSA, CSG and CSA derivative inhibitors",88.6%
same,Percent Inhibition,"MoAb AM1-7F5; AM1-7F5, Table 24, CSA, CSG and CSA derivative inhibitors",28.8%
same,Percent Inhibition,"MoAb AM1-2E10; AM1-2E10, Table 24, CSA, CSG and CSA derivative inhibitors",61% and 61.2%
"C=CC[C@@H]1/C=C(\C)C[C@H](C)C[C@H](OC)[C@H]2O[C@@](O)(C(=O)C(=O)N3CCCC[C@H]3C(=O)O[C@H](/C(C)=C/[C@@H]3CC[C@@H](O)[C@H](OC)C3)[C@H](C)[C@@H](O)CC1=O)[C@H](C)C[C@@H]2OC [FK, tacrolimus]",Percent Inhibition,[1]; Mouse 1,24.2%
same,Percent Inhibition,[1]; Mouse 2,34.5%
same,Percent Inhibition,[2]; Mouse 5,0%
same,Percent Inhibition,[2]; Mouse 6,0%
same,Percent Inhibition,[3]; Mouse 3,0%
same,Percent Inhibition,[3]; Mouse 4,0%
same,Percent Inhibition,[4],0%
same,Percent Inhibition,"[5]; Mouse sera, Table 3, inhibition ELISA to the CSA-DVS-HSA conjugate",31.9%
same,Percent Inhibition,[6]; Mouse 1,0%
same,Percent Inhibition,[6]; Mouse 2,0%
same,Percent Inhibition of TCS,MoAb CSA-2G9,10.8%
same,Percent Inhibition of TCS,MoAb CSA-1H6,0%
same,Percent Inhibition of TCS,MoAb AM19-1-7E12-1,6.3%
same,Percent Inhibition of TCS,MoAb AM19-1-7E12-2,3.2%
same,Percent Inhibition of TCS,MoAb AM1-7F5,26.0%
same,Percent Inhibition of TCS,MoAb AM1-2E10,0%
same,Percent Inhibition,[7]; Mouse 1,3.5%
same,Percent Inhibition,[7]; Mouse 2,13.0%
"KLH: keyhole limpet hemocyanin, protein carrier",Percent Inhibition,[1]; Mouse 1,12.3%
same,Percent Inhibition,[1]; Mouse 2,35.8%
same,Percent Inhibition,[2]; Mouse 5,0%
same,Percent Inhibition,[2]; Mouse 6,0%
same,antibody titres to the KLH carrier protein,[8],significant antibody titres
same,antibody titres to the KLH carrier protein,[9],significant antibody titres
same,Percent Inhibition,[3]; Mouse 3,0%
same,Percent Inhibition,[3]; Mouse 4,0%
same,antibody titres to the KLH carrier protein,[10],significant antibody titres
same,antibody response to the KLH carrier,[11],significant response
same,antibody response to the KLH carrier,[12],significant response
same,antibody titres to the KLH carrier,[13],Significant antibody titres
same,Percent Inhibition,[4],0%
same,Percent Inhibition,"[5]; Mouse 1, inhibiting AG conc 0.156 μg/100 μL",0%
same,Percent Inhibition,"[5]; Mouse 1, inhibiting AG conc 0.313 μg/100 μL",0%
same,Percent Inhibition,"[5]; Mouse 1, inhibiting AG conc 1.25 μg/100 μL",0%
same,Percent Inhibition,"[5]; Mouse 1, inhibiting AG conc 5 μg/100 μL",0%
same,Percent Inhibition,"[5]; Mouse 1, inhibiting AG conc 10 μg/100 μL",0%
same,Percent Inhibition,"[5]; Mouse 2, inhibiting AG conc 0.156 μg/100 μL",0%
same,Percent Inhibition,"[5]; Mouse 2, inhibiting AG conc 0.313 μg/100 μL",0%
same,Percent Inhibition,"[5]; Mouse 2, inhibiting AG conc 1.25 μg/100 μL",0%
same,Percent Inhibition,"[5]; Mouse 2, inhibiting AG conc 5 μg/100 μL",0%
same,Percent Inhibition,"[5]; Mouse 2, inhibiting AG conc 10 μg/100 μL",0%
same,Percent Inhibition,[6]; Mouse 1,0%
same,Percent Inhibition,[6]; Mouse 2,0%
same,Percent Inhibition of TCS,MoAb CSA-2G9,4.8%
same,Percent Inhibition of TCS,MoAb CSA-1H6,0%
same,Percent reactivity,"[14]; AM19-1-7E12-1, OD to test antigen / OD to AM19-1-DVS (1)-HSA × 100",0%
same,OD,"[14]; AM19-1-7E12-1 TCS, coated test antigen",0.023
same,Percent reactivity,"[15]; AM19-1-7E12-2, OD to test antigen / OD to AM19-1-DVS (1)-HSA × 100",0%
same,OD,"[15]; AM19-1-7E12-2 TCS, coated test antigen",0
same,Percent Inhibition of TCS,MoAb AM19-1-7E12-1,3.8%
same,Percent Inhibition of TCS,MoAb AM19-1-7E12-2,4.3%
same,Percent reactivity,"[16]; CSA-1H6, OD to test antigen / OD to CSA-DVS-HSA × 100",0%
same,OD,"[16]; CSA-1H6 TCS, coated test antigen",0
same,Percent reactivity,"[17]; CSA-2G9, OD to test antigen / OD to CSA-DVS-HSA × 100",0%
same,OD,"[17]; CSA-2G9 TCS, coated test antigen",0.026
same,Percent reactivity,"[18]; AM1-2E10, OD to test antigen / OD to CSA-DVS-HSA × 100",3.9%
same,OD,"[18]; AM1-2E10 TCS, coated test antigen",0.061
same,Percent reactivity,"[19]; AM1-7F5, OD to test antigen / OD to CSA-DVS-HSA × 100",0%
same,OD,"[19]; AM1-7F5 TCS, coated test antigen",0
same,Percent Inhibition of TCS,MoAb AM1-7F5,22.5%
same,Percent Inhibition of TCS,MoAb AM1-2E10,0%
same,Percent Inhibition,[7]; Mouse 1,8.9%
same,Percent Inhibition,[7]; Mouse 2,5.8%
